Results on eight compounds are retold here after patent publication US20140212382A1, “PURINE MONOPHOSPHATE PRODRUGS FOR TREATMENT OF VIRAL INFECTIONS” (EMORY UNIVERSITY, priority 2011, published 2014).

The CC50 is the concentration at which the toxic effect on the cells reaches its halfway point. Read a high CC50 as lower toxicity to the cells.

One data set has as its system HepG2 Hepatoma cells. Briefly: Lactic acid production in HepG2 cells. It is filed as cell-based. Particulars: 10 μM, 14 day assay. The procedure:
The effect on the growth of HepG2 cells was determined by incubating cells in the presence of 0 μM, 0.1 μM, 1 μM, 10 μM and 100 μM drug. Cells (5×10^4 per well) were plated into 12-well cell culture clusters in minimum essential medium with nonessential amino acids supplemented with 10% fetal bovine serum, 1% sodium pyruvate, and 1% penicillin/streptomycin and incubated for 4 days at 37° C. At the end of the incubation period the cell number was determined using a hemocytometer. Also taught by Pan-Zhou X-R, Cui L, Zhou X-J, Sommadossi J-P, Darley-Usmer V M. “Differential effects of antiretroviral nucleoside analogs on mitochondrial function in HepG2 cells” Antimicrob. Agents Chemother. 2000; 44: 496-503. […] At day 4 the number of cells in each well was determined and the culture medium collected. The culture medium was filtered, and the lactic acid content in the medium determined using a colorimetric lactic acid assay (Sigma-Aldrich). Since lactic acid product can be considered a marker for impaired mitochondrial function, elevated levels of lactic acid production detected in cells grown in the presence of 2,6-diamino 2′-C-Me purine nucleoside monophosphate prodrug analogs would indicate a drug-induced cytotoxic effect.
The effect of compounds 8b-up, 12, and 8a on nuclear or mitochondrial DNA, or lactic acid production, in HepG2 Hepatoma cells was analyzed over a 14 day period. […]

Data set [1] deals with MtDNA, HepG2 Hepatoma cells. Briefly: Mitochondrial toxicity in HepG2 cells: mitochondrial DNA content. It is filed as cell-based. The following applies: HepG2 Hepatoma cells, 14 day assay; for % Inhibition MtDNA: 10 μM. From the text: A real-time PCR assay to accurately quantify mitochondrial DNA content has been developed (see Stuyver L J, Lostia S, Adams M, Mathew J S, Pai B S, Grier J, Tharnish P M, Choi Y, Chong Y, Choo H, Chu C K, Otto M J, Schinazi R F. Antiviral activities and cellular toxicities of modified 2′,3′-dideoxy-2′,3′-didehydrocytidine analogs. Antimicrob. Agents Chemother. 2002; 46: 3854-60). This assay was used in all studies described in this application that determine the effect of nucleoside analogs on mitochondrial DNA content. In this assay, low-passage-number HepG2 cells were seeded at 5,000 cells/well in collagen-coated 96-well plates. Nucleoside monophosphate analogs were added to the medium to obtain final concentrations of 0 μM, 0.1 μM, 10 μM and 100 μM. On culture day 7, cellular nucleic acids were prepared by using commercially available columns (RNeasy 96 kit; Qiagen). […] The mitochondrial cytochrome c oxidase subunit II (COXII) gene and the β-actin or rRNA gene were amplified from 5 μl of the eluted nucleic acids using a multiplex Q-PCR protocol with suitable primers and probes for both target and reference amplifications. For COXII the following sense, probe and antisense primers are used, respectively: 5′-[…]-3′,5′-tetrachloro-6-carboxyfluorescein-[…]-TAMRA-3′ and 5′-[…]-3′. For exon 3 of the β-actin gene (GenBank accession number E01094) the sense, probe, and antisense primers are 5′-[…]-3′,5′-6-[…]-3′ and 5′-[…]-3′, respectively. The primers and probes for the rRNA gene are commercially available from Applied Biosystems. Since equal amplification efficiencies were obtained for all genes, the comparative CT method was used to investigate potential inhibition of mitochondrial DNA synthesis. The comparative CT method uses arithmetic formulas in which the amount of target (COXII gene) is normalized to the amount of an endogenous reference (the β-actin or rRNA gene) and is relative to a calibrator (a control with no drug at day 7). The arithmetic formula for this approach is given by 2-ΔΔCT, where ΔΔCT is (CT for average target test sample−CT for target control)−(CT for average reference test−CT for reference control) (see Johnson M R, K Wang, J B Smith, M J Heslin, R B Diasio. Quantitation of dihydropyrimidine dehydrogenase expression by real-time reverse transcription polymerase chain reaction. Anal. Biochem. 2000; 278:175-184). A decrease in mitochondrial DNA content in cells grown in the presence of drug would indicate mitochondrial toxicity.
(§1) The effect of compounds 8b-up, 12, and 8a on nuclear or mitochondrial DNA, or lactic acid production, in HepG2 Hepatoma cells was analyzed over a 14 day period. The procedure outlined in section (i) above was used for this analysis.

For data set [2], the system named is nuclear DNA, HepG2 Hepatoma cells. Briefly: Mitochondrial toxicity in HepG2 cells: nuclear DNA content. The following applies: 10 μM; HepG2 Hepatoma cells, 14 day assay. It is filed as cell-based. Here is the method:
This assay was used in all studies described in this application that determine the effect of nucleoside analogs on mitochondrial DNA content. In this assay, low-passage-number HepG2 cells were seeded at 5,000 cells/well in collagen-coated 96-well plates. […] On culture day 7, cellular nucleic acids were prepared by using commercially available columns (RNeasy 96 kit; Qiagen). […] The mitochondrial cytochrome c oxidase subunit II (COXII) gene and the β-actin or rRNA gene were amplified from 5 μl of the eluted nucleic acids using a multiplex Q-PCR protocol with suitable primers and probes for both target and reference amplifications. […] For exon 3 of the β-actin gene (GenBank accession number E01094) the sense, probe, and antisense primers are 5′-[…]-3′,5′-6-[…]-3′ and 5′-[…]-3′, respectively. The primers and probes for the rRNA gene are commercially available from Applied Biosystems. […] The comparative CT method uses arithmetic formulas in which the amount of target (COXII gene) is normalized to the amount of an endogenous reference (the β-actin or rRNA gene) and is relative to a calibrator (a control with no drug at day 7). The arithmetic formula for this approach is given by 2-ΔΔCT, where ΔΔCT is (CT for average target test sample−CT for target control)−(CT for average reference test−CT for reference control) (see Johnson M R, K Wang, J B Smith, M J Heslin, R B Diasio. Quantitation of dihydropyrimidine dehydrogenase expression by real-time reverse transcription polymerase chain reaction. Anal. Biochem. 2000; 278:175-184). A decrease in mitochondrial DNA content in cells grown in the presence of drug would indicate mitochondrial toxicity.
as §1

Data set [3] in a line: Cytotoxicity assay, PBM cells. It is filed as cell-based. The following applies: human. The procedure: (§2) The toxicity of the compounds was assessed in Vero, human PBM, CEM (human lymphoblastoid), and HepG2 cells, as described previously (see Schinazi R. F., Sommadossi J.-P., Saalmann V., Cannon D. L., Xie M.-Y., Hart G. C., Smith G. A. & Hahn E. F. Antimicrob. Agents Chemother. 1990, 34, 1061-67). Cycloheximide was included as positive cytotoxic control, and untreated cells exposed to solvent would be included as negative controls. The cytotoxicity IC50 was obtained from the concentration-response curve using the median effective method described previously (see Chou T.-C. & Talalay P. Adv. Enzyme Regul. 1984, 22, 27-55; Belen'kii M. S. & Schinazi R. F. Antiviral Res. 1994, 25, 1-11).

A short description of data set [4]: Cytotoxicity assay, Vero cells. It is filed as cell-based. Particulars: African green monkey. Here is the method: as §2
Data set [5] can be described thus: Cytotoxicity assay, CEM cells. It is filed as cell-based. Particulars: human. The procedure:
as §2

The test system of another data set is HCV 1b C316Y replicon. The data set can be described thus: HCV resistant replicon 1b C316Y. It is filed as cell-based.
A further data set has as its system HCV 1b replicon. Briefly: HCV replicon, genotype 1b. It is filed as cell-based.
The test system of the next data set is HCV 4a chimera replicon. The data set can be described thus: HCV replicon, 4a chimera. It is filed as cell-based. Background: Replicon systems follow genome replication, usually without infectious particles.
For a further data set, the system named is HCV 1b S282T replicon. Briefly: HCV resistant replicon 1b S282T. It is filed as cell-based.
The next data set has as its system HCV 2a replicon. Briefly: HCV replicon, genotype 2a. It is filed as cell-based.
The next data set concerns HCV 1a replicon. The data set can be described thus: HCV replicon, genotype 1a. It is filed as cell-based.
In a further data set the test system is HCV 3a chimera replicon. The data set can be described thus: HCV replicon, 3a chimera. It is filed as cell-based.
Data set [6] deals with HCV Replicon RNA in Huh 7 Clone B cells. Briefly: HCV replicon assay. It is filed as cell-based. The following applies: HCV replicon assay. Here is the method:
Huh 7 Clone B cells containing HCV Replicon RNA were seeded in a 96-well plate at 5000 cells/well, and the compounds tested at 10 μM in triplicate immediately after seeding. Following five days incubation (37° C., 5% CO2), total cellular RNA was isolated using the versaGene RNA purification kit from Gentra. Replicon RNA and an internal control (TaqMan rRNA control reagents, Applied Biosystems) were amplified in a single step multiplex Real Time RT-PCR Assay. The antiviral effectiveness of the compounds was calculated by subtracting the threshold RT-PCR cycle of the test compound from the threshold RT-PCR cycle of the no-drug control (ΔCt HCV). A ΔCt of 3.3 equals a 1-log reduction (equal to 90% less starting material) in Replicon RNA levels. The cytotoxicity of the compounds was also calculated using the ΔCt rRNA values. (2′-C-Me-C) was used as the control. To determine EC90 and IC50 values^2, ΔCt: values were first converted into a fraction of the starting material,^3 and then were used to calculate the % inhibition. The data on three compounds (Compound 12, Compound 8a, and compound 8b-up) is shown below in Table 3.

In another data set the test system is HCV 2b chimera replicon. The data set can be described thus: HCV replicon, 2b chimera. It is filed as cell-based.
Another data set has as its system HCV 5a chimera replicon. Briefly: HCV replicon, 5a chimera. It is filed as cell-based.
In a further data set the test system is HCV 1b M414I replicon. The data set can be described thus: HCV resistant replicon 1b M414I. It is filed as cell-based.
In the next data set the test system is HepG2 cells. Particulars: 10 μM; cited from earlier work.
The subject of another data set is adenosine deaminase. Briefly: Adenosine deaminase assay. It is filed as in vitro ADME. The following applies: 7 minutes with 0.002 units of enzyme; 50 μM, pH 7.4, 25° C. The procedure: To determine the propensity for deamination of the nucleosides and monophosphate prodrugs by adenosine deaminase, nucleoside analogues can be incubated with the commercially available purified enzyme, and the reaction can be followed spectrophotometrically. Typical reaction conditions involve preparing a solution containing 50 μM nucleoside analog in 0.5 mL 50 mM potassium phosphate (pH 7.4) at 25° C. The typical reaction time is 7 minutes with 0.002 units of enzyme, and 120 minutes with 0.2 units of enzyme. (The unit definition of adenosine deaminase is one unit will deaminate 1.0 μmol of adenosine to inosine per minute at pH 7.5 at 25° C.) Deoxyadenosine is typically used as a positive control. Deoxyadenosine is 59% deaminated under the given conditions in 7 minutes with 0.002 units of enzyme. Deoxyguanosine is typically used as a negative control. Optical density can be measured at 265 nm or 285 nm. The difference in optical density between the beginning and the end of the experiment is divided by the extinction coefficient, and then multiplied by the volume of the reaction to determine the number of mols of substrate transformed into product. Mols of product would be divided by mols of substrate equivalent to a 100% complete reaction then multiplied by 100 to obtain percent deamination. The limit of detection is typically 0.001 optical density units.

`Nc1ccn([C@H]2CC[C@@H](CO)O2)c(=O)n1` [ddC, reference compound]: the “Lactic acid levels (% of control) ± SD” value with HepG2 Hepatoma cells was 220 ± 11 % of control. Besides, the “% Inhibition MtDNA” value in data set [1] amounted to 100%. Besides, the “% Inhibition nuclear DNA” value in [2] was found to be 72%.
As for `CCOC(=O)[C@H](C)NP(=O)(OC[C@H]1O[C@@H](n2cnc3c(N)nc(N)nc32)C(C)(O)C1O)Oc1ccccc1` (stereo partly shown) [drawing 53], the cytotoxic concentration (CC50) in data set [3] (PBM), in data set [4] (Vero) and in data set [5] (CEM) was over 100 µM throughout.
Regarding `Nc1ccn([C@@H]2CS[C@H](CO)O2)c(=O)n1` [Compound 3TC, reference compound], in the data set with HepG2 Hepatoma cells, the “Lactic acid levels (% of control) ± SD” value is reported as 91 ± 2.5 % of control. Moreover, the “% Inhibition MtDNA” value in [1] is listed as <1/<1%.
On to `CC1(O)C(O)[C@@H](CO)O[C@H]1n1cnc2c(N)nc(N)nc21` (stereo partly shown) [drawing 52], for which the CC50 in data set [3] (PBM cells), in [4] (Vero cells) and in [5] (CEM lymphoblastoid cells) was over 100 µM throughout.
Regarding `CCOC(=O)CCc1ccccc1OP(=O)(NC(C)C(=O)OCC)OC[C@H]1O[C@@H](n2cnc3c(N)nc(N)nc32)C(C)(O)C1O` (single isomer, unassigned) [Compound 8b-up], the “Fold increase versus 1b WT at the EC90” value in the data set on HCV 1b C316Y replicon was “++ (++ = 1.1 to 2)”; with HCV 1b replicon, “+ (+ = 0.1 to 1)”; with HCV 4a chimera replicon, “+++ (+++ = 2.1 to 3)”; with HCV 1b S282T replicon it was “+ (+ = 0.1 to 1)”; in the data set on HCV 2a replicon it was “++ (++ = 1.1 to 2)”; with HCV 1a replicon it was “++ (++ = 1.1 to 2)”. Moreover, the “Fold increase versus 1b WT at the EC90” value is “+ (+ = 0.1 to 1)” in the data set with HCV 3a chimera replicon, “++ (++ = 1.1 to 2)” in the data set on HCV 2b chimera replicon, “++ (++ = 1.1 to 2)” in the data set with HCV 5a chimera replicon and “+++ (+++ = 2.1 to 3)” with HCV 1b M414I replicon. Moreover, the “effect on nuclear or mitochondrial DNA or lactic acid production” value in [1] (up to 50 μM, summary also covers nuclear DNA and lactic acid) is on record as “no significant effect”. Further, the “times more potent than 8b-down” value in data set [6] is recorded as “approximately 10”.
With `O=c1[nH]c(=O)n([C@@H]2O[C@H](CO)[C@@H](O)[C@@H]2F)cc1I` [fialuridine, 1,2′-deoxy-2′-fluoro-1-D-arabinofuranosly-5-iodo-uracil], the “morphological changes in mitochondria (electron micrographs)” value in the data set with HepG2 cells is “presence of enlarged mitochondria with morphological changes consistent with mitochondrial dysfunction”.
`CCOC(=O)CCc1ccccc1OP(=O)(N[C@H](C)C(=O)OCC)OC[C@H]1O[C@@H](n2cnc3c(N)nc(N)nc32)C(C)(O)C1O` (stereo partly shown) [drawing 54]: the CC50 in data set [3] (PBM), in data set [4] (Vero) and in [5] (CEM) was over 100 µM each time.
On to `Nc1ncnc2c1ncn2[C@H]1C[C@H](O)[C@@H](CO)O1` [Deoxyadenosine], for which, in the data set on adenosine deaminase, the percent deamination amounted to 59%.
